Data as given in patent US10487313B2, “Efficient induction of definitive endoderm from pluripotent stem cells” (Novo Nordisk A/S, priority 2011, dated 2019).

Columns and labels:
[1] = tested on: SA121 hES and chIPS4 iPS cells; assay: Quantitative real-time PCR of PS and DE markers (Brachyury, SOX17) during DE induction; assay type: cell-based, human; details: for Brachyury (PS) response timing compared to CHIR treatment: Wnt3a (200 ng/ml) or BIO (0.5 μM) 24 h instead of CHIR, upregulated D2
Description: Human embryonic stem (hES) cells SA121 and chIPS4 (Cellartis) were grown on human fibronectin (Sigma) in DEF culture media (Cellartis) with 30 ng/ml bFGF (Invitrogen) and 10 ng/ml Noggin (Peprotech) in 6-96 well plates. Cells were single cell passaged with Rock inhibitor Y-27632 (Calbiochem) and seeded at a density of 40000 cells/cm2 for experiments. Experiments were initiated 4 d after passage.
Confluent cultures were washed once in RPMI1640 (Invitrogen) before 24 hour pre-treatment with 0,5-7μM CHIR99021 (Stemgent) in RPMI. Control cells were left untreated in RPMI and D'Amour cells were either left in RPMI or treated with AA (Peprotech)+Wnt3a (R&D Systems) without pre-treatment depending on experimental setup.
After 24 hours, pretreated and control cells were washed once with RPMI before adding 100 ng/ml AA in RPMI. D'Amour cells were also treated with 100 ng/ml AA but with 0,2% FBS instead of B27. 24 h later, 2% B27 (Invitrogen) was added to the AA media for 2-3 d. Control cells were treated with B27 to prevent cell death and D'Amour cells with 2% FBS according to published protocol. Media was changed every day.
RNA samples were collected after 24 h pre-treatment (D1), after 1 day of AA treatment (D2) and after 1-2 d of AA+B27 treatment (D3-4). Total RNA was extracted with the Rneasy Plus Mini kit (Qiagen) and quantitative real-time PCR was performed using the StepOnePLus system (Applied Biosystems).
Undifferentiated SA121 hES and chIPS4 iPS cells in DEF media (DO) were cultured either in RPMI without CHIR (Ctrl D1) or treated for 24 h with CHIR in RPMI (CHIR D1). The cells were then washed to ensure absence of CHIR and then both conditions were treated with 1 d AA (Ctrl and CHIR d2). […] T fold inductions after 24 h CHIR treatment spanned between 500-100000 compared to undifferentiated cells (d0). T protein levels were also confirmed with ICC (FIG. 2C).
The efficiency levels for both T and SOX17 were highly robust (n>60) and confirmed with IHC and SOX17 quantifications (FIG. 2C and Table 2.). […] SOX17 expression peaked already after one day of AA treatment when cells were subjected to CHIR for 24 h before AA induction.
(§1) hES SA121 and ChIPS4 cells were treated with either CHIR (3 μM), BIO (0.5 μM), Wnt3a (200 ng/ml) or AA alone (100 ng/ml) for 24 h prior to AA addition to show CHIR specificity (d1). Additionally, D'Amour (protocol as described in Kroon et al 2008) was tested in parallel.
Chir was titrated at concentrations between 1-7 uM and analyzed after 24 h Chir treatment (D1) and after 2 d of following AA treatment (D3).

hES SA121 cells = assay: CHIR specificity: cell survival after 24 h pre-treatment prior to AA addition; assay type: cell-based, human; details: 24 h pre-treatment with BIO (0.5 μM) or AA alone (100 ng/ml), then AA
Description: as §1
The data clearly illustrated that PS transition (upregulation of Brachyury) and DE induction (upregulation of SOX17) were both accelerated and much higher after CHIR treatment compared to pretreatment with growth factors such as AA and Wnt3a.

Molecule | Brachyury (PS) response timing compared to CHIR treatment [1] | cell survival until day 3 (hES SA121 cells) | time of SOX17 induction peak after AA ([1]; CHIR-priming step 24 h then AA, versus AA alone) [days]
O=C1Nc2cc(Br)ccc2/C1=C1/Nc2ccccc2/C1=N\O [BIO] | delayed | did not survive until day 3 | –
AA: Activin A, growth factor used for definitive endoderm induction | – | did not survive until day 3 | 3 to 4
Wnt3a: the Wnt receptor ligand Wnt3a (protein, UniProt P56704 19-352, looked up) Protein Wnt-3a: SYPIWWSLAVGPQYSSLGSQPILCASIPGLVPKQLRFCRNYVEIMPSVAEGIKIGIQECQHQFRGRRWNCTTVHDSLAIFGPVLDKATRESAFVHAIASAGVAFAVTRSCAEGTAAICGCSSRHQGSPGKGWKWGGCSEDIEFGGMVSREFADARENRPDARSAMNRHNNEAGRQAIASHMHLKCKCHGLSGSCEVKTCWWSQPDFRAIGDFLKDKYDSASEMVVEKHRESRGWVETLRPRYTYFKVPTERDLVYYEASPNFCEPNPETGSFGTRDRTCNVSSHGIDGCDLLCCGRGHNARAERRREKCRCVFHWCCYVSCQECTRVYDVHTCK | delayed | – | –
